# Patent US12264175B2, “Compositions and methods for capping RNAS” (Verve Therapeutics, Inc., priority 2020, dated 2025)
# Legend:
# mouse PCSK9 (mPCSK9) = test: In vivo base editing in mouse with LNP of sgRNA and capped ABE mRNA (NGS editing efficiency); conditions: LNP with sgRNA targeting mPCSK9 and ABE mRNA; mice; FIG. 7
# Experimental: Lipid nanoparticles (LNPs) are generated by microfluidic mixing using the Precision Nanosystems NanoAssemblr system according to the manufacturer's protocol, with some optimization for individual payloads. The resulting LNPs are filtered using 0.2-micron filters and stored at 4° C. or frozen at […]
# LNPs used in these studies are prepared as described above in Example 6 (A), comprising chemically synthesized sgRNAs targeting the mouse ANGPTL3 (mANGPTL3) and/or mouse PCSK9 (mPCSK9) genes and SpCas9 or ABE8.8 mRNA in a 1:1 weight ratio, are administered to C57BL/6 mice (n=5) intravenously via the lateral tail vein or retro-orbital sinus in a total volume of 5-10 ml/kg. […]
# Paired-end reads are analyzed with the CRISPResso2 pipeline (Clement, K. et al., Nat. Biotech. 2019, 37, 224-226). Briefly, low-quality reads are filtered out, adapter sequences are trimmed from the reads, and the paired-end reads are merged and aligned to the amplicon sequence. The editing percentage is calculated as the number of reads supporting […], over the total number of aligned reads. For ABE, the editing percentage is calculated as the number of reads supporting […], over the total number of aligned reads. […]
# T7 RNA polymerase = T7 RNA polymerase (Escherichia phage T7, UniProt P00573); test: One-pot IVT preparation of 5′ capped mRNA (production yield, full-length purity); type: biochemical
# Source text: The 5′ end initiator, 1007a, (FIG. 1A) was used to prepare capped mRNAs that encode for ABE and luciferase proteins. In this Example and for all others described herein, the ABE mRNA sequence was MA004 (SEQ. 0001) and the luciferase mRNA sequence was the Photinus pyralis (Firefly) luciferase sequence described in NCBI reference sequence XM_031473197.1. These mRNA can be produced by different methods well known in the art. One of such methods used herein was in vitro transcription (IVT) using T7 polymerase; or in other embodiments, additional RNA polymerase variants. This IVT reaction to produce mRNA used a linearized DNA template that comprised a T7 polymerase promoter and associated regulatory sequences, mRNA coding sequence (CDS), 3′ and 5′ untranslated regions (UTRs), poly A tail, and additional sequence elements to facilitate and modulate mRNA stability and in vivo performance. Prior to IVT, the DNA template was in the form of a plasmid; in other embodiments the DNA template is in the form of a PCR product, synthetic DNA product, or any other double-stranded DNA construct. Linearization of the DNA template with a restriction digestion enzyme was performed in order to promote run-off transcription. The typical IVT reaction included T7 polymerase, DNA template, RNase inhibitor, cap analog, inorganic pyrophosphatase, and the naturally occurring ribonucleoside triphosphates (NTPs) such as GTP, ATP, CTP, and N1-methyl pseudouridine triphosphosphate; in some embodiments NTPs include UTP or modified NTPs such as pseudouridine, 5′methyl cytidine, 5-methoxy uridine, N6-methyl adenosine, and N4-acetyl cytidine. The 1007a 5′ end initiator was added to the IVT reaction along with ATP, GTP, CTP, and N1-methyl pseudouridine triphosphate at a 1:1 initiator-to-NTP molar ratio and additional ratios described in Example 5 (B). Poly A tail was encoded in the DNA template that was added to the mRNA during transcription; in some instances, poly A tail is added to the mRNA after the IVT reaction using an RNA ligase enzyme. Finally, T7 RNA polymerase was added to the mixture and the IVT reaction was run at 37° C. for about 1-4 hours. After IVT, DNase was added to the transcription mixture to remove DNA template; in some instances, residual DNA is removed with chromatography. This mRNA was purified to remove residual reaction products and impurities, and stored in 1 mM citrate buffer. Characterization of production yield and mRNA full-length purity was performed by UV spectrometry and capillary gel electrophoresis methods, which are known in the art. […] Similar IVT and purification process are used to produce mRNA encoding SpCas9, Cas12b, CBE, and other ABEs; in all cases the DNA template, reaction conditions, and purification parameters are optimized for the specific gene of interest.
# Similarly, ABE encoding mRNA with 5′ end region, 1107a, (FIG. 1B) was produced and characterized as described in the paragraph above.
# Chain of T7 RNA polymerase (P00573 whole entry): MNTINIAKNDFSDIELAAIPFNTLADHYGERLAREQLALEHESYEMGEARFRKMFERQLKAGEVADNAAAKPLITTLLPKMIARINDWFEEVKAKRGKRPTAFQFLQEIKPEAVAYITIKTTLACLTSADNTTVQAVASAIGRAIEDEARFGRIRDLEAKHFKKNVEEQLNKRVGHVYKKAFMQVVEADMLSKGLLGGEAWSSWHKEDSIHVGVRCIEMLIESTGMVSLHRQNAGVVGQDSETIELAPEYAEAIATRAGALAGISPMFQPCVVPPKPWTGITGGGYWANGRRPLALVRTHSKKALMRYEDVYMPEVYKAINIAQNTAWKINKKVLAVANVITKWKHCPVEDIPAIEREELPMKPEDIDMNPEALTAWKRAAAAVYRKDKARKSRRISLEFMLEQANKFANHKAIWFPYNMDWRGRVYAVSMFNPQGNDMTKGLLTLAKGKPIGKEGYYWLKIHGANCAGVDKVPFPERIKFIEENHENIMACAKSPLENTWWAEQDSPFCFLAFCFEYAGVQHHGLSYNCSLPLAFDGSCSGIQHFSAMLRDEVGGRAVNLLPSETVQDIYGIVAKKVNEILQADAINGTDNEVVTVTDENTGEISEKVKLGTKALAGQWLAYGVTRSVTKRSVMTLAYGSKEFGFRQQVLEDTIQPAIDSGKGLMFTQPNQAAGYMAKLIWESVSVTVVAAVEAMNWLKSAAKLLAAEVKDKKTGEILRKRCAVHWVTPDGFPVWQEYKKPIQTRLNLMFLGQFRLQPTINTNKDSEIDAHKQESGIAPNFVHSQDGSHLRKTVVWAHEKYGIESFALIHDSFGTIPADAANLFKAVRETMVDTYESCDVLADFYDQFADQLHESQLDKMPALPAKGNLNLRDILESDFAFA
compound,measurement,setting,value
"COC1C(OP([O-])(=S)OCC2OC(n3cnc4c(=O)[nH]c(N)nc43)C(O)C2O)C(COP(=O)(O)OP(=O)(O)OP(=O)(O)OCC2OC(n3c[n+](C)c4c(=O)[nH]c(N)nc43)C(O)C2O)OC1n1cnc2c(N)ncnc21 (stereo not shown) [1007a, m^7G(ppp)Am(ps)G]",hepatocyte editing levels as compared to mRNA with 5′ end region motif 1002a,mouse PCSK9 (mPCSK9),similar
same,final production yield of mRNA,"T7 RNA polymerase; ABE encoding mRNA made with the 5′ end initiator, T7 IVT, FIG. 2",about 3.3 mg per 1 ml of IVT reaction
same,mRNA full-length purity,"T7 RNA polymerase; ABE encoding mRNA made with the 5′ end initiator, capillary gel electrophoresis, FIG. 3",about 88%
same,amount of full-length mRNA produced,"T7 RNA polymerase; initiator-to-NTP ratio ranging from 1:1 down to 1:5, FIG. 3",did not reduce
